“And” between values parts separate entries of the source, which are not always exact repeats. Equal values may be shown once.
T1: PaoD (Escherichia coli, UniProt P77183)
T1 construct: full length, expressed from plasmid pMN87 in E. coli BL21(DE3), Ni-TED purified (tag not described); dimer in solution
T1 sequence (P77183 1-318): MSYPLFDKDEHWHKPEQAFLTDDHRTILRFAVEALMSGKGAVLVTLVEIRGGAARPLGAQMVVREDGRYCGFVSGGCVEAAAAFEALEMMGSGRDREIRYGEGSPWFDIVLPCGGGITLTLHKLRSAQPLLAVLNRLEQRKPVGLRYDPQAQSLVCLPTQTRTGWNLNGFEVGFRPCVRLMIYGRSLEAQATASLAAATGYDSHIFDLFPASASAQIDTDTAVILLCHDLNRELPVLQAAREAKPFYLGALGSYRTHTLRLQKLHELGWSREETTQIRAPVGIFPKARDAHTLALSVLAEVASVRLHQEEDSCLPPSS


Tests used:
[1] = target: T1, PaoD; assay: ultrafiltration, bound cofactor oxidized to Form A, HPLC fluorescence; format: binding; details: 12 µM PaoD, 0-48 µM cofactor, 100 mM Tris-HCl, 300 mM NaCl, pH 7.2, 277 K
[2] = target: T1, PaoD; assay: STD-NMR; format: binding; details: ca 30 µM PaoD, 3 mM ionic liquid, 50 mM Tris-HCl, 1 mM EDTA, 300 mM NaCl, pH 8.0, 310 K; signals from cation ring protons; weak surface interaction
[3] = target: the molecule itself; assay: SEC; freshly purified PaoD on Superdex 75 HR10/30, 50 mM Tris-HCl, 300 mM NaCl, pH 8.0, 283 K, 0.5 mL/min; column calibrated with Bio-Rad standards

Molecule	STD-NMR [2]	other results
Nc1nc2c(c(=O)[nH]1)N[C@H]1C(S)=C(S)[C@@H](COP(=O)(O)O)O[C@H]1N2 [MPT]		ultrafiltration, bound cofactor oxidized to Form A, HPLC fluorescence [1]: The obtained chromatograms showed that Mo-MPT and MPT was bound to PaoD
C[n+]1ccn(CCO)c1 [[C2OHmim]PF6]	aromatic protons of the cation were detected both for [C2OHmim]PF6 and [C4mim]Cl	
CCCC[n+]1ccn(C)c1 [[C4mim]Cl]	aromatic protons of the cation were detected both for [C2OHmim]PF6 and [C4mim]Cl	
PaoD (natural protein, Escherichia coli, UniProt P77183 1-318, looked up, PaoD, XdhC-like molecular chaperone of the periplasmic aldehyde oxidoreductase PaoABC, last gene of the paoABCD operon of Escherichia coli; calculated mass 34.8 kDa; the tag is inferred from the Ni-TED column and imidazole elution; also called molecular chaperone PaoD; E. coli PaoD; source: E. coli BL21(DE3), plasmid pMN87, purified (Ni-TED chromatography)) MSYPLFDKDEHWHKPEQAFLTDDHRTILRFAVEALMSGKGAVLVTLVEIRGGAARPLGAQMVVREDGRYCGFVSGGCVEAAAAFEALEMMGSGRDREIRYGEGSPWFDIVLPCGGGITLTLHKLRSAQPLLAVLNRLEQRKPVGLRYDPQAQSLVCLPTQTRTGWNLNGFEVGFRPCVRLMIYGRSLEAQATASLAAATGYDSHIFDLFPASASAQIDTDTAVILLCHDLNRELPVLQAAREAKPFYLGALGSYRTHTLRLQKLHELGWSREETTQIRAPVGIFPKARDAHTLALSVLAEVASVRLHQEEDSCLPPSS		stoichiometry N [3]: 2 and 4
